Earlier results as cited in patent US20260283943A1, “STARCHLESS MOLDING PROCESS FOR ORAL PRODUCTS” (NICOVENTURES TRADING LIMITED, priority 2023, published 2026).

Key:
[1] = isolated substance

For `C=C(C)[C@@H]1CCC(C)=C[C@H]1c1c(O)cc(CCCCC)cc1O` [CBD, cannabidiol, reference compound], the Solubility in water is given as “insoluble in an aqueous environment”.

In the case of `COC(=O)/C=C/C(C)=C\C=C\C(C)=C\C=C\C=C(C)\C=C\C=C(C)\C=C\C(=O)O` [bixin, (2E,4E,6E,8E,10E,12E,14E,16Z,18E)-20-methoxy-4,8,13,17-tetramethyl-20-oxoicosa-2,4,6,8,10,12,14,16,18-nonaenoic acid], the Chemical stability [1] is listed as “chemically unstable when isolated” and the Solubility in water is listed as “insoluble in water”.
